# In patent US20050014849A1, “Antifungal phenylethylene” (priority 2001, published 2005):
# Assays:
# [1] = test system: Micrococcus luteus Presque Isle 456; assay: NCCLS disk susceptibility test; format: cell-based; details: disk diffusion
# Protocol: (§1) Antimicrobial activity was assayed by National Committee for Clinical Laboratory Standards (NCCLS) disk susceptibility tests. Isolated colonies from overnight cultures were suspended and diluted as recommended to yield approximately 1-2×10^8 cfu/ml, and 50 μl of this preparation immediately spread on agar plates. NCCLS recommended agar media were used for S. pneumoniae and N. gonorrhoeae, and Mueller-Hinton agar for all other bacteria. Yeast strains were tested on SDA. Excess moisture was absorbed for 10 min prior to application of 6 mm paper discs containing two-fold dilutions of TMPN in sterile DMSO.
# [2] = test system: Bacillus subtilis Presque Isle 620; assay: NCCLS disk susceptibility test; format: cell-based; details: disk diffusion
# Protocol: as §1
# [3] = test system: Cryptococcus neoformans ATCC 90112; assay: NCCLS disk susceptibility test; format: cell-based; details: disk diffusion
# Protocol: as §1
# [4] = test system: Enterobacter cloacae ATCC 13047; assay: NCCLS disk susceptibility test; format: cell-based; details: disk diffusion
# Protocol: as §1
# [5] = test system: Neisseria gonorrhoeae ATCC 49226; assay: NCCLS disk susceptibility test; format: cell-based; details: disk diffusion
# Protocol: as §1
# [6] = test system: Proteus vulgaris Presque Isle 365; assay: NCCLS disk susceptibility test; format: cell-based; details: disk diffusion
# Protocol: as §1
# [7] = test system: Pseudomonas aeruginosa Presque Isle 99; assay: NCCLS disk susceptibility test; format: cell-based; details: disk diffusion
# Protocol: as §1
# [8] = test system: Staphylococcus aureus ATCC 29213; assay: NCCLS disk susceptibility test; format: cell-based; details: disk diffusion
# Protocol: as §1
# [9] = test system: Klebsiella pneumoniae Presque Isle 344; assay: NCCLS disk susceptibility test; format: cell-based; details: disk diffusion
# Protocol: as §1
# [10] = test system: Staphylococcus epidermidis Presque Isle 4653; assay: NCCLS disk susceptibility test; format: cell-based; details: disk diffusion
# Protocol: as §1
# [11] = test system: Stenotrophomonas maltophilia ATCC 13637; assay: NCCLS disk susceptibility test; format: cell-based; details: disk diffusion
# Protocol: as §1
# [12] = test system: Candida albicans ATCC 90028; assay: NCCLS disk susceptibility test; format: cell-based; details: disk diffusion
# Protocol: as §1
# [13] = test system: Enterococcus faecalis ATCC 29212; assay: NCCLS disk susceptibility test; format: cell-based; details: disk diffusion
# Protocol: as §1
# [14] = test system: Escherichia coli ATCC 25922; assay: NCCLS disk susceptibility test; format: cell-based; details: disk diffusion
# Protocol: as §1
# [15] = test system: Streptococcus pneumoniae ATCC 6303; assay: NCCLS disk susceptibility test; format: cell-based; details: disk diffusion
# Protocol: as §1
# C. laurentii ATCC 66036 = assay: Broth macrodilution MIC/MFC; format: cell-based, Cryptococcus laurentii
# Protocol: (§2) TMPN was screened against yeasts by the broth macrodilution assay according to the NCCLS [7]. Yeasts were suspended and diluted as recommended to yield final inocula ranging from 0.5-2.5×10^3 cfu/ml. Tests were performed in sterile 12 by 75 mm plastic tubes containing two-fold dilutions of TMPN in 0.165 M morpholinepropanesulfonic acid buffered RPMI 1640 medium (pH 7.0). One tube was again left drug free (but contained an equivalent volume of DMSO) for a turbidity control. Tubes were incubated without agitation at the appropriate temperature (see Fungal Strains section above). MICs were determined after 72 h for Cryptococcus and after 48 h for other yeast genera. The MIC was defined as the lowest concentration of TMPN that inhibited all visible growth of the test organism (optically clear).
# (§3) Minimum fungicidal concentrations (MFCs) were determined by subculturing 0.1 ml from each tube with no visible growth in the MIC broth macrodilution series onto the appropriate drug-free plates (see Fungal Strains section above).
# C. laurentii ATCC 18803 = assay: Broth macrodilution MIC/MFC; format: cell-based, Cryptococcus laurentii
# Protocol: as §2, §3
# C. laurentii ATCC 34142 = assay: Broth macrodilution MIC/MFC; format: cell-based, Cryptococcus laurentii
# Protocol: as §2, §3
# [16] = test system: all 60 Candida spp. clinical isolates; assay: Broth macrodilution MFC/MIC ratios, combined Candida isolates; format: cell-based; details: all 60 Candida spp. clinical isolates combined
# Protocol: as §2, §3
# C. rugosa (7) = assay: Broth macrodilution MIC/MFC; format: cell-based, Candida rugosa
# Protocol: as §2, §3
# T. ovoides ATCC 90040 = assay: Broth macrodilution MIC/MFC; format: cell-based, Trichosporon ovoides
# Protocol: as §2, §3
# [17] = test system: A. flavus (ASU culture collection); assay: Broth macrodilution MIC/MFC, filamentous fungi; format: cell-based, Aspergillus flavus
# Protocol: Susceptibility testing of filamentous fungi was also conducted. Broth macrodilution susceptibility testing of P. lilacinus, Rhizopus spp. and Aspergillus spp. was performed in accordance with a proposed standardized procedure with slight modification. To induce conidium and sporangiospore formation, fungi were grown on PDA slants at 35° C. for 6 days (P. lilacinus, Rhizopus spp., all Aspergillus species except A. nidulans) or 3 days (A. nidulans). Fungal slants were covered with sterile 0.85% NaCl (P. lilacinus, Rhizopus spp., all Aspergillus species except A. nidulans) or 0.05% Tween 80 (A. nidulans), and suspensions were made by gently probing the colonies with the tip of a sterile Pasteur pipette. The resulting mixture of hyphal fragments and conidia or sporangiospores was withdrawn and transferred to a sterile clear microcentrifuge tube, and heavy particles were allowed to settle for 10 min. […] Susceptibility to TMPN was then determined by broth macrodilution as described above for yeast isolates. […]
# as §3
compound,measurement,setting,value
"COc1cc(C=C[N+](=O)[O-])cc(OC)c1OC [TMPN, 1-(3′,4′,5′-trimethoxyphenyl)-2-nitro-ethylene]",MIC,[1],50-100 μg/disk
same,MIC,[2],50-100 μg/disk
same,MIC,[3],0.78-1.56 μg/disk
same,MIC,[4],>100 μg/disk
same,MIC,[5],0.39-0.78 μg/disk
same,MIC,[6],12.5-25 μg/disk
same,MIC,[7],>100 μg/disk
same,MIC,[8],3.12-6.25 μg/disk
same,MIC,[9],>100 μg/disk
same,MIC,[10],50-100 μg/disk
same,MIC,[11],>100 μg/disk
same,MIC,[12],6.25-12.5 μg/disk
same,MIC,[13],50-100 μg/disk
same,MIC,[14],>100 μg/disk
same,MIC,[15],3.12-6.25 μg/disk
same,MFC Range,C. laurentii ATCC 66036,32 µg/mL
same,MIC Range,C. laurentii ATCC 66036,16 µg/mL
same,MFC Range,C. laurentii ATCC 18803,32 µg/mL
same,MIC Range,C. laurentii ATCC 18803,16 µg/mL
same,MFC Range,C. laurentii ATCC 34142,32 µg/mL
same,MIC Range,C. laurentii ATCC 34142,32 µg/mL
same,share of isolates with MFC/MIC ratio ≦2,[16],47%
same,share of isolates with MFC/MIC ratio ≦4,[16],60%
same,MIC Range,C. rugosa (7),1 to 64 µg/mL
same,MFC Range,T. ovoides ATCC 90040,32 µg/mL
same,MIC Range,T. ovoides ATCC 90040,16 µg/mL
same,MFC Range,[17],>64 µg/mL
same,MIC Range,[17],16 µg/mL
